Data taken from ChEMBL document CHEMBL1134973, “Modification of the pyridine moiety of non-peptidyl indole GnRH receptor antagonists” (Bioorg Med Chem Lett, 2002).

Assays:
[1] = Oral bioavailability in dog; assay type: ADME, organism-based, Canis lupus familiaris; settings: in vivo
[2] = target: T1, Gonadotropin-releasing hormone receptor (Homo sapiens, UniProt P30968); assay: Concentration required for the inhibition of phosphatidyl inositol hydrolysis in chinese hamster ovary cells expressing human GnRH receptor (Gonadotropin Release Hormone receptor); assay type: functional, cell-based
T1 sequence (P30968 whole entry): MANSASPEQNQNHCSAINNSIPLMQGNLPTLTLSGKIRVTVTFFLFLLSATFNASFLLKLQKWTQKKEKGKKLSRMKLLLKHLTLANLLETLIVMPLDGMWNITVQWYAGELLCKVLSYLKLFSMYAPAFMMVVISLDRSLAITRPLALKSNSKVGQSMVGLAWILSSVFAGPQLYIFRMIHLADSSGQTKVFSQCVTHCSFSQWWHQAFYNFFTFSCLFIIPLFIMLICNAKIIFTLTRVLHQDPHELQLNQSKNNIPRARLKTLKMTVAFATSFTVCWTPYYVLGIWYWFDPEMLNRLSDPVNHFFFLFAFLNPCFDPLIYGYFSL

[3] = Oral bioavailability of compound was determined in rats; assay type: ADME, organism-based; settings: rat, in vivo
[4] = Half-life of compound was determined in dogs; assay type: ADME, organism-based, Canis lupus familiaris; settings: dog, in vivo
[5] = Half-life of compound was determined in rats; assay type: ADME, organism-based; settings: rat, in vivo
[6] = target: T1, Gonadotropin-releasing hormone receptor; assay: Concentration required for the inhibition of I-125 labeled buserelin binding to the human Gonadotropin-releasing hormone receptor
[7] = Half-life of compound in plasma of dog was determined; assay type: ADME, organism-based, Canis lupus familiaris

Cc1cc(C)cc(-c2[nH]c3ccc(C(C)(C)C(=O)N4CC5CCC4CC5)cc3c2[C@H](C)CNCCc2cc[n+]([O-])c(C)c2)c1
bioavailability [1]: 25%
IC50 [2]: 5.9 nM
bioavailability [3]: 23%
half-life [4]: 5 h
half-life [5]: 2 h
IC50 [6]: 0.3 nM

CCCc1cc(CCNC[C@@H](C)c2c(-c3cc(C)cc(C)c3)[nH]c3ccc(C(C)(C)C(=O)N4CC5CCC4CC5)cc23)ccn1
IC50 [2]: 62 nM
IC50 [6]: 4.6 nM

Cc1cc(C)cc(-c2[nH]c3ccc(C(C)(C)C(=O)N4CC5CCC4CC5)cc3c2[C@H](C)CNCCc2cc(C)nc(C)c2)c1
IC50 [2]: 24 nM
IC50 [6]: 0.4 nM

CCc1cc(CCNC[C@@H](C)c2c(-c3cc(C)cc(C)c3)[nH]c3ccc(C(C)(C)C(=O)N4CC5CCC4CC5)cc23)ccn1
IC50 [2]: 19 nM
IC50 [6]: 3.3 nM

Cc1cc(C)cc(-c2[nH]c3ccc(C(C)(C)C(=O)N4CC5CCC4CC5)cc3c2[C@H](C)CNCCc2ccnc(C#N)c2)c1
IC50 [2]: 11 nM
IC50 [6]: 0.7 nM

COC(=O)c1cc(CCNC[C@@H](C)c2c(-c3cc(C)cc(C)c3)[nH]c3ccc(C(C)(C)C(=O)N4CC5CCC4CC5)cc23)ccn1
IC50 [2]: 25 nM
IC50 [6]: 0.9 nM

Cc1cc(C)cc(-c2[nH]c3ccc(C(C)(C)C(=O)N4CC5CCC4CC5)cc3c2[C@H](C)CNCCc2ccncc2C)c1
IC50 [2]: 48 nM
IC50 [6]: 0.8 nM

Cc1cc(C)cc(-c2[nH]c3ccc(C(C)(C)C(=O)N4CC5CCC4CC5)cc3c2[C@H](C)CNCCc2cc[n+]([O-])cc2)c1
bioavailability [1]: 14%
IC50 [2]: 6.4 nM
IC50 [6]: 0.3 nM

Cc1cc(C)cc(-c2[nH]c3ccc(C(C)(C)C(=O)N4CC5CCC4CC5)cc3c2[C@H](C)CNCCc2ccnc(CO)c2)c1
bioavailability [1]: 15%
half-life [7]: 2 h
IC50 [2]: 7.5 nM
IC50 [6]: 0.4 nM

CC(=O)OCc1cc(CCNC[C@@H](C)c2c(-c3cc(C)cc(C)c3)[nH]c3ccc(C(C)(C)C(=O)N4CC5CCC4CC5)cc23)ccn1
IC50 [2]: 22 nM
IC50 [6]: 0.4 nM

CC(=O)c1cc(CCNC[C@@H](C)c2c(-c3cc(C)cc(C)c3)[nH]c3ccc(C(C)(C)C(=O)N4CC5CCC4CC5)cc23)ccn1
IC50 [2]: 12 nM
IC50 [6]: 0.6 nM

Cc1cc(C)cc(-c2[nH]c3ccc(C(C)(C)C(=O)N4CC5CCC4CC5)cc3c2[C@H](C)CNCCc2ccnc(C(C)(C)O)c2)c1
IC50 [2]: 106 nM
IC50 [6]: 0.7 nM

COCc1cc(CCNC[C@@H](C)c2c(-c3cc(C)cc(C)c3)[nH]c3ccc(C(C)(C)C(=O)N4CC5CCC4CC5)cc23)ccn1
IC50 [2]: 55 nM
IC50 [6]: 0.7 nM

Cc1cc(C)cc(-c2[nH]c3ccc(C(C)(C)C(=O)N4CC5CCC4CC5)cc3c2[C@H](C)CNCCc2cc[n+]([O-])cc2C)c1
IC50 [2]: 26 nM
IC50 [6]: 0.8 nM

Cc1cc(C)cc(-c2[nH]c3ccc(C(C)(C)C(=O)N4CC5CCC4CC5)cc3c2[C@H](C)CNCCc2cc(C)[n+]([O-])c(C)c2)c1
bioavailability [1]: 29%
IC50 [2]: 10 nM
half-life [4]: 7 h
IC50 [6]: 0.5 nM

Cc1cc(C)cc(-c2[nH]c3ccc(C(C)(C)C(=O)N4CC5CCC4CC5)cc3c2[C@H](C)CNCCc2ccnc(C(=O)O)c2)c1
IC50 [2]: 371 nM
IC50 [6]: 8.2 nM

Cc1cc(C)cc(-c2[nH]c3ccc(C(C)(C)C(=O)N4CC5CCC4CC5)cc3c2[C@H](C)CNCCc2ccnc(C(C)O)c2)c1 (stereo partly specified)
IC50 [2]: 20 nM
IC50 [6]: 0.6 nM

Cc1cc(C)cc(-c2[nH]c3ccc(C(C)(C)C(=O)N4CC5CCC4CC5)cc3c2[C@H](C)CNCCc2ccnc(C)c2)c1
bioavailability [1]: 36%
IC50 [2]: 8.7 nM
IC50 [6]: 0.9 nM
